Consider two molecules from ChEMBL document CHEMBL4028866 (J Med Chem, 2017).

SMILES strings stand for the structures.

The nature of data set [1]: in vivo. Particulars: Sprague-Dawley, rat, iv, 1 mg/mg.
Data set [2] in a line: in vivo. Particulars: Sprague-Dawley, rat, iv, 1 mg/mg. The source holds these as a separate data set.
Data set [3] is described as follows: in vivo. The note with it: Sprague-Dawley, rat, iv, 1 mg/mg. The source holds these as a separate data set.
Data set [4] in a line: in vivo. The note with it: Sprague-Dawley, rat, po, 10 mg/mg.
Data set [5] in a line: in vivo. The note with it: Sprague-Dawley, rat, po, 10 mg/mg. This is another data set of the same source.
The nature of data set [6]: in vivo. The note with it: Sprague-Dawley, rat, iv, 1 mg/mg. The source holds these as a separate data set.
Data set [7] can be described thus: in vivo. Particulars: Sprague-Dawley, rat, po, 10 mg/mg. The source holds these as a separate data set.
Data set [8] in a line: in vivo. Particulars: Sprague-Dawley, rat, iv, 1 mg/mg. The source holds these as a separate data set.
The nature of data set [9]: in vivo. Particulars: Sprague-Dawley, rat, po, 10 mg/mg. The source holds these as a separate data set.
A short description of data set [10]: in vivo. Particulars: Sprague-Dawley, rat, po, 10 mg/mg. This is another data set of the same source.
Data set [11] can be described thus: in vivo. Particulars: Sprague-Dawley, rat, iv, 1 mg/mg. This is another data set of the same source.
A short description of data set [12]: in vivo. The note with it: Sprague-Dawley, rat, po, 10 mg/mg. This is another data set of the same source.
Data set [13] in a line: in vivo. The note with it: Sprague-Dawley, rat, po, 10 mg/mg. The source holds these as a separate data set.
The species entered for a further data set is Rattus norvegicus. Particulars: in vivo, po.
Data set [14] can be described thus: in vivo. Particulars: Sprague-Dawley, rat, iv, 1 mg/mg. This is another data set of the same source.
Data set [15] can be described thus: in vivo. Particulars: Sprague-Dawley, rat, po, 10 mg/mg. The source holds these as a separate data set.
Data set [16] in a line: in vivo. Particulars: Sprague-Dawley, rat, iv, 1 mg/mg. This is another data set of the same source.

As to `CC(C)(C)c1cc(NC(=O)Nc2ccc(-n3nc(-c4ccc(OCCN5CCOCC5)cc4)c4c(N)ncnc43)cc2)no1`, the time of peak concentration (Tmax) turned out to be 1.02 min in “in vivo [1]” and 6.66 h in the data set “in vivo [13]”. For the same molecule, the figures for the AUC(0-inf) in “in vivo [2]” and in the data set “in vivo [15]” were 525 ng·h/mL and 991 ng·h/mL, respectively. In the data set “in vivo [3]”, this molecule showed a clearance of 0.0345 mL/min/kg. The half-life in “in vivo [4]” was 3.61 h; in “in vivo [8]”, 3.34 h. Moreover, the results for the peak concentration (Cmax) in the data set “in vivo [5]” and in “in vivo [14]” were 83.5 ng/mL and 839 ng/mL, respectively. Further, the MRT inf in the data set “in vivo [6]” turned out to be 3.13 h; in “in vivo [10]”, 7.22 h. The same molecule showed a CL/F in the data set “in vivo [7]” of 0.193 mL/min/kg. Besides, the AUC(0-t) worked out at 978 ng·h/mL in “in vivo [9]” and 520 ng·h/mL in “in vivo [11]”. Also, in the data set “in vivo [12]”, the bioavailability was 18.8%. The Vz in the data set filed under Rattus norvegicus came to 0.06082 L/kg.
Regarding `CC(C)(C)c1cc(NC(=O)Nc2ccc(-c3cn4c(n3)sc3cc(OCCN5CCOCC5)ccc34)cc2)no1` [QUIZARTINIB], the time to peak (Tmax) is 1.8 min in the data set “in vivo [1]” and 8 h in “in vivo [13]”. Also, the area under the curve AUC(0-inf) in “in vivo [2]” amounted to 1970 ng·h/mL; in the data set “in vivo [15]”, 15000 ng·h/mL. The clearance in the data set “in vivo [3]” was 9.35 mL/min/kg. In addition, the half-life is 3.73 h in “in vivo [4]” and 4.38 h in “in vivo [8]”. Further, the Cmax in “in vivo [5]” worked out at 1140 ng/mL; in “in vivo [14]” it was 728 ng/mL. The mean residence time MRT inf in “in vivo [6]” was determined as 5.83 h; in the data set “in vivo [10]”, 10.1 h. This molecule also gave an apparent clearance (CL/F) in “in vivo [7]” of 12.6 mL/min/kg. Moreover, the Vd in “in vivo [16]” was 3.53 L/kg. For the same molecule, the area under the curve AUC(0-t) in the data set “in vivo [9]” came to 14500 ng·h/mL; in the data set “in vivo [11]”, 1930 ng·h/mL. Moreover, in the data set “in vivo [12]”, the bioavailability was 75.9%. The molecule further had a Vz in the data set filed under Rattus norvegicus of 4.078 L/kg.

For orientation: Tmax means the time from dosing to the highest level. By AUC(0-inf) is commonly meant total exposure, with the tail of the curve extrapolated. The low end stands for less exposure, the high end for more exposure. In general, clearance refers to the volume of plasma or blood freed of the substance per unit of time. Read a low clearance as inefficient removal. A word on the half-life: it is how long it takes for the measured level to halve. By Cmax is commonly meant the highest concentration seen after dosing. The term MRT inf denotes the average time that molecules of a dose stay in the body. The term CL/F denotes clearance divided by bioavailability, as obtained after extravascular dosing. Broadly, the AUC(0-t) is the area under the concentration-time curve up to a stated or last time point. High values mean high exposure, low ones low exposure. As usually defined, the bioavailability is dose-corrected exposure relative to a reference, in per cent. The term Vd denotes a proportionality between amount in the body and measured concentration, not a real space. Read a low Vd as little distribution into tissue.
